From a melting point compilation (Tetko et al.; mined from patent text by program, amines drawn as free bases though some values may be those of a salt)

Structure (SMILES)	melting point [°C]
O=C(Nc1ccccc1)NC1C(=O)N(CC2C3CC4CC(C3)CC2C4)c2ccccc2N(c2ccccc2)C1=O (stereo not drawn)	192 to 193
Cc1ccc(CN(O)C(N)=O)s1	134
O=C(O)c1cccc(-n2c(-c3ccccc3)cc3c2-c2ccccc2CC3)c1	225 to 228
CSC(=O)c1ccccc1NC1CCN(C)CC1	64 to 65
Clc1nc(Cl)nc(-c2cccn2Cc2ccccc2)n1	150 to 151
Cc1ccc(S(=O)(=O)N2CCC(c3ccc(CCCCC(=O)O)cc3)CC2)cc1	164 to 170
Nc1sc2c(c1C(=O)c1cccc(CF)c1)CCN(Cc1ccccc1)C2	58 to 60
CNC(=NS(C)(=O)=O)Nc1ccc(C2=NNC(=O)CC2C)cc1 (stereo not drawn)	228 to 230
O=c1ccn(-c2ccccc2C(F)(F)F)nc1-c1ccnn1-c1ccccc1	145 to 146
CCCCCCCCCCNC(=O)c1ccc(C(=O)NCCCCCCCCCC)c([N+](=O)[O-])c1	159 to 160
COC(=O)[C@H]1CC[C@H](NC(=O)c2cc(-c3ccc(C#N)cc3)nnc2N2CCOCC2)CC1	269 to 271
CC1=C(C(=O)OC(C)(C)C)C(c2ccccc2Cl)C(C(=O)OC(C)(C)C)=C(C)N1	194 to 196
O=S1(=O)NC(C2CCCCC2)Nc2ccc(S(=O)(=O)N3CCCC3)cc21 (stereo not drawn)	244 to 246
COC(=O)C(=CN1CCCC1)C(=O)c1cc(F)c(Cl)cc1Cl	74 to 76
NC(=O)N1CC(Oc2ccc(C(F)(F)F)cc2)C1	176 to 178
COc1ccc(-n2nc(-c3ccc(F)cc3)c(-c3ccncc3)c2-c2c[nH]cn2)cc1	124 to 126
Cc1[nH]c(C(=O)Nc2ccc(C#N)cc2)c(C)c1-c1nc2ccc(C(=O)c3ccccc3)cc2[nH]1	252 to 254
CC(=O)NCc1ccc(CN2CCN(c3ccc(NC(C)=O)cc3)CC2)cc1	225 to 226
CCOC(=O)[C@H](Cc1ccc(N)cc1)NC(=O)c1ccccc1	120 to 122

Structure (SMILES)	melting point [°C]
CCOC(=O)C1=C(C)NC(C)=C(C(=O)OCC)C1c1ccccc1F	151 to 152
CCCCc1c(C(=O)c2cccnc2)c2ccccc2n1C	89 to 90
COc1ccc(C=C2c3ccccc3C(=NOCC(=O)N3CCC(CO[N+](=O)[O-])CC3)c3ccccc32)cc1O	143 to 145
N#Cc1c(N2CCN(C(=O)c3cccs3)CC2)c2cc(F)cnc2n(CC(=O)c2ccccc2)c1=O	262
CC(=O)Nc1ccc(OC(C)CN2CCN(CCc3ccc(C(=O)O)cc3)CC2)cc1 (stereo not drawn)	234 to 235
O=C1CC2(C(=O)N1)C(=O)N1CCOc3cc(Cl)cc2c31 (stereo not drawn)	260 to 262
CCOC(=O)C(F)Sc1ccc(O)cc1 (stereo not drawn)	72
Cc1ccc2cc(C(=O)NCCSC(c3ccccc3)(c3ccccc3)c3ccccc3)[nH]c2c1NS(=O)(=O)c1cccs1	245 to 246
CCOC1=NS(=O)(=O)C(C(=O)OCc2ccccc2)=C1N	144 to 147
CC(n1ncn(-c2ccc(N3CCN(c4ccc(O)cc4)CC3)cc2)c1=O)C(F)(F)F (stereo not drawn)	215
CCCOc1ccc(N2CCCn3c2nc2c(Cl)ccc(C(OC(F)F)C(F)(F)F)c23)c(C)n1 (stereo not drawn)	156 to 158
O=C(O)C(CCc1ccccc1)CC1(C(=O)Nc2cccnc2)CCCC1 (stereo not drawn)	80 to 85
CCCCNC(=O)[C@H](C)C[C@H](O)[C@H](CC1CCCCC1)NC(=O)[C@H](Cc1cscn1)NC(=O)[C@@H](CC(=O)N1CCCCC1)Cc1ccc(OC)cc1	120 to 122
COC(=O)c1cc(OCc2ccccc2)nn1C(C)C	73 to 74
CC1(C)OC(=O)C(C(=O)C2CC2)C(=O)O1	44 to 46
CS(=O)(=O)c1ccc(Cl)cc1C(=O)O	138 to 146
CC1(C2CCCC2)Cc2cc(OCCCC(=O)O)c(Cl)c(Cl)c2C1=O (stereo not drawn)	154
CC(C)(C)c1ccc(NC(=O)c2ccc(C3=NCCS3)cc2)cc1	176 to 177
COc1cc2c(cc1OC)CN(CCCOc1ccc(NC(=O)c3ccc4ccccc4c3)cc1)CC2	189 to 190

Structure (SMILES)	melting point [°C]
O=C(c1ccccc1)N1CC2CC=Cc3cccc1c32 (stereo not drawn)	89 to 91
CCNc1cccc(NC(=O)COC)c1C#N	118 to 119
CCCc1c(OCCCOc2c(C(C)=O)ccc(OCC(=O)OCC)c2CCC)ccc(C(C)=O)c1O	45 to 46
CC(Br)C(=O)c1cc(C(N)=O)cs1 (stereo not drawn)	116 to 117
O=C(Nc1cccc([N+](=O)[O-])c1)C1=C(Nc2ccccc2)COC1=O	194 to 195
CCCC(=O)Oc1ccc2[nH]c(=O)c(-c3nnn(Cc4cccc(OCc5ccc6ccccc6n5)c4)n3)cc2c1	200 to 202
O=C(CCc1cccnc1)Nc1cccc(-c2ccnc3c(C(=O)c4cccs4)cnn23)c1	> 200
CC(=O)OC1CC(C)(C)N(OC(=O)C23CC4CC(CC(C4)C2)C3)C(C)(C)C1	132 to 134
CCCCOc1c(CN2C(=O)c3ccccc3C2=O)n(CCC(=O)N2CCCC2)c(=O)c2cc(Cl)c(Cl)cc12	222
CN(Cc1ccncc1)c1ccc([N+](=O)[O-])c2c(C#N)cccc12	153 to 156
O=c1ccn(-c2cccc(C(F)(F)F)c2)nc1-c1nnnn1-c1ccccc1	172 to 173
N#Cc1c(N2CCN(C(=O)c3ccco3)CC2)c2cc(Cl)ccc2n(Cc2ccc(F)cc2)c1=O	253
CC(C)[C@H](NC(=O)OCc1ccccc1)[C@H](O)C(F)(F)F	103 to 104
CCCCn1nc2c(N)nc3ccccc3c2c1CC(C)(C)O	130
CCCC(=O)c1cnc(C(CC2CCCC2)c2ccc(S(C)(=O)=O)cc2)[nH]1 (stereo not drawn)	159 to 163
Fc1ccc(Oc2ncc3c(-c4ccccc4Cl)n[nH]c3n2)c(F)c1	173 to 176
CCOC(=O)C1=CNC2=C(C(=O)Nc3ccccc3)CCN2C1=O	240 to 241
CCOC(=O)Cn1c2cccccc-2c(C(=O)OCC)c1=O	115 to 120

Results, then the compound that gave them:

melting point [°C]	Structure (SMILES)
135 to 140	CC(=O)N1CCSC1c1nsc2ccc(-n3c(=O)cc(C(F)(F)F)n(C)c3=O)cc12 (stereo not drawn)
162	COc1cc2c(cc1OC)[C@H]1CCCC[C@H]1N=C2c1ccc(C(C)=NNC(=O)c2cccnc2)cc1
74 to 75	COc1ccc(CC(C)=O)cc1SC
88.5 to 89.5	CCCCCCOc1ccc(C(=O)CSc2ccnc3ccccc23)c(OC)c1
191 to 192	Cc1cc(-n2ccc(OCc3ccccc3)cc2=O)oc1C(=O)NCc1ccccc1
205 to 208	CN1CC(=O)N(c2cc(Cc3n[nH]c(=O)c4ccccc34)ccc2F)C(=O)C1
260 to 263	COc1cc2c(cc1S(N)(=O)=O)CCN(C(C)=O)CC2
> 300	Nc1ccc(-c2nc(Cl)c3c(=O)[nH][nH]c(=O)c3c2N)cc1
276	O=C(O)c1cc2sc3sccc3c2s1
284 to 286	Cc1cc(S(=O)(=O)O)c(NC(=O)Nc2cc3ccccc3[nH]2)cc1Cl
218	Cc1ccc(-c2nc(C#N)c(-c3cccc(Cl)c3)n2-c2cc(Cl)ccc2C)cc1C
140 to 141	COCOc1ccccc1-c1cc(-c2cccc(C(=O)OC)c2OC)c(C#N)c(NC(=O)c2ccco2)n1
209 to 211	CCNc1nc2cc(Cc3c(C)nc4cc(C)ccn34)ccc2o1
247 to 249	Nc1nc2ccccc2c2sc(CO)nc12
218 to 220	COc1ccc2c(c1)CCCC21NC(=O)NC1=O (stereo not drawn)
194 to 195	O=C(Nc1ccc(OC(F)(F)F)cc1)c1c(O)c2ccccc2oc1=O
175 to 176	Cc1nc(-c2ccccc2)nc(-c2ccncc2)c1CO
167 to 168	COc1c2occc2cc2c(C)cc(=O)oc12
102 to 103	Cc1ccc2c(c1)c1c(n2CCBr)C(=O)CCC1
170 to 172	COC(=O)c1ccc2c(c1)C(=O)CCC2
135 to 138	Cc1cccc(Nc2cc(Nc3ccc(OCC(=O)N(C)C)cc3)ncn2)c1

melting point [°C]	Structure (SMILES)
115 to 118	Cn1cc(CN2C(=O)C3(COc4cc5c(cc43)OCO5)c3ccccc32)ccc1=O (stereo not drawn)
248	CNC(=O)NS(=O)(=O)c1cc2c(cc1OC)OC(C)(C)C(NC(=O)c1cc(Cl)ccc1OC)C2 (stereo not drawn)
156 to 157	CCS(=O)c1ccc(-c2coc3ccc(-c4nnc(C)o4)cc23)cc1 (stereo not drawn)
225 to 228	CCCCC(CCC)c1ccc2[nH]c3cnc(C(=O)OCC)c(C)c3c2c1 (stereo not drawn)
255 to 257	CNS(=O)(=O)c1cn(C)c2cc(F)ccc2c1=O
141 to 142	c1cc2[nH]ncc2cc1OC1CCCC1
150 to 151	CCOC(=O)C(C)(C)c1ccc(C2=NC(C)(C)Cc3cc(OC)c4c(c32)CC(C)(C)O4)cc1
157 to 159	Cc1oc(-c2ccc(SC(F)(F)F)cc2)nc1CCOc1ccc(CN(O)C(N)=O)cc1
75 to 78	COC(=O)CCC#Cc1cc(Cl)ccc1[N+](=O)[O-]
161 to 163	COc1cc2c(c(Cl)c1Cl)C(=O)C(C)(c1ccccc1)C2 (stereo not drawn)
170 to 171	CSc1nnc(-c2ccccc2Nc2c(Cl)ccc(C)c2Cl)o1
342 to 345	COc1ccc2[nH]c3cc(N)c4c(c3c2c1)C(=O)NC4=O
121 to 122	COc1nc(F)cc2nc(SCc3ccccc3)nn12
81 to 82	COc1ccc(C2=NC(C)(C)CO2)c(Cc2ccccc2)c1OC
172	CCCCOc1c(CNC(=O)OC(C)(C)C)n(CC(C)C)c(=O)c2ccc(-c3nc(C(=O)OCC)cs3)cc12
102 to 103	CCOc1cccc(-c2nc3n(n2)CCc2ccccc2-3)c1
171 to 172	Cc1cc(C)n2nc(-c3ccccc3)c(CC(=O)N(C)C)c2n1
> 260	COC1(C2=NCCN2)COc2c(F)cccc2O1 (stereo not drawn)
231 to 233	Cc1ccc(Oc2ccc(-n3cc(C(=O)O)cn3)cc2)c(O)c1
140 to 145	CC(=O)Nc1ccc(-c2cccc(-c3nc(C(C)C)[nH]c3-c3cccc(C)n3)c2)cc1
146 to 148	O=C1c2cccc(O)c2N=CC2CCCN12 (stereo not drawn)
